# Like-named read-outs stand apart in the source and are kept apart here.
# Target: T1, F508delCFTR (Homo sapiens, UniProt P13569, DEL508-508)
# T1 construct: expressed in transfected cells; host or cells: CFBE41o- human lung-derived epithelial cells (CFBE4lo-F508delCFTR-HRP), doxycycline-inducible
# Assay: Cell Surface Expression-Horse Radish Peroxidase (CSE-HRP) Assay;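 for Maximum % activity (with co-corrector): co-corrector and positive control are both the same reference corrector at 2 µM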;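 for Maximum % activity (without co-corrector): percent of the 2 µM on-plate positive control corrector response above DMSO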
# Format: cell-based
# Details: for Maximum % activity (with co-corrector): with co-corrector (2 μM); for Maximum % activity (with co-corrector) / Emax: maximum at any tested concentration, normalized to on-plate positive control; for Emax: without co-corrector, read-out: Maximum % activity (without co-corrector)
# [1] = test compound without co-corrector, read-out: EC50 (without co-corrector)
# [2] = with co-corrector (2 μM of 3-[(2R,4R)-4-({[1-(2,2-difluoro-1,3-benzodioxol-5-yl)cyclopropyl]carbonyl}amino)-7-methoxy-3,4-dihydro-2H-chromen-2-yl]benzoic acid), read-out: EC50 (with co-corrector)
# T1 sequence (P13569 with tags, fused parts or gaps DEL508-508): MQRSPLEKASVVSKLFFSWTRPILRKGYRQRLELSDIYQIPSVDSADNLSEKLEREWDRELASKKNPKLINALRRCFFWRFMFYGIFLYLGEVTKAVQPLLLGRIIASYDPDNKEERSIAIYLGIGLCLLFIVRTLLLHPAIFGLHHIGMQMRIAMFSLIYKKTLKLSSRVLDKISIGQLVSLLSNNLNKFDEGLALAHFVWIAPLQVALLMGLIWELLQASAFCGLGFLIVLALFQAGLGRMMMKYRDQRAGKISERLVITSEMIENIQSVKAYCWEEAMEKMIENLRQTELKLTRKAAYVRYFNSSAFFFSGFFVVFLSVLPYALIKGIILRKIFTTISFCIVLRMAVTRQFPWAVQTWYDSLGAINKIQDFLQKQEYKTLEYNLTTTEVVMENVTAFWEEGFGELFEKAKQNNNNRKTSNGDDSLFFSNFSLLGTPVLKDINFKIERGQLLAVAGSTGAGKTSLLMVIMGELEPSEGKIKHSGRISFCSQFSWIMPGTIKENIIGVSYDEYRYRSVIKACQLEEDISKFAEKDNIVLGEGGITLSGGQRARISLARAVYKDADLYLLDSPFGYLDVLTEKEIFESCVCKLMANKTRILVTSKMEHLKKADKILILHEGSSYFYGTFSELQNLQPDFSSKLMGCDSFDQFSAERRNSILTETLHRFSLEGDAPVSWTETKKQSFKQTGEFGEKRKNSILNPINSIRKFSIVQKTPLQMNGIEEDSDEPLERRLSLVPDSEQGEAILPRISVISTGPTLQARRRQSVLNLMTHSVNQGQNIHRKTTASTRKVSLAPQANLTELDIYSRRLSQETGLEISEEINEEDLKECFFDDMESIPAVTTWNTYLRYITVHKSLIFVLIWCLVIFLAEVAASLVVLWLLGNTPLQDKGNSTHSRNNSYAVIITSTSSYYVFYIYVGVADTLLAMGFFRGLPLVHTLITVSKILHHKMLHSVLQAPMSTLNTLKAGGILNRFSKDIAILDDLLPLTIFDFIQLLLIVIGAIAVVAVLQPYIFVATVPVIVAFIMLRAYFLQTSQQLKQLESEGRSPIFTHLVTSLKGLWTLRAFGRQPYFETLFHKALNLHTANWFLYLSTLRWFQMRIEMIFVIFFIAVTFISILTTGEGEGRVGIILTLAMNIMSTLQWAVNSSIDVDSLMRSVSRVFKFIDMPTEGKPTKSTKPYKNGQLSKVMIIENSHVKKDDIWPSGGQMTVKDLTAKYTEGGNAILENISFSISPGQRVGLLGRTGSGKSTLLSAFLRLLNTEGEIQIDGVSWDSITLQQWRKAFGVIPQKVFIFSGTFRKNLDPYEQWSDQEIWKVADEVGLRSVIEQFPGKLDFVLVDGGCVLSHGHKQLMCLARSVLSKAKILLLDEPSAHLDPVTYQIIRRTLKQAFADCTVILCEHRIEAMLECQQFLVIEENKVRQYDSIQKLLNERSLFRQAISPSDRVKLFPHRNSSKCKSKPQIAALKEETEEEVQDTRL
smiles,measurement,setting,value
"COc1ncc(C(F)(F)F)cc1CN[C@H]1[C@H](C(C)(C)C)[C@@H](C(=O)O)N(C(=O)C2CCCCC2)[C@H]1c1ccccc1OC(F)F [Example 14, (2S,3S,4S,5S)-3-tert-butyl-1-(cyclohexanecarbonyl)-5-[2-(difluoromethoxy)phenyl]-4-({[2-methoxy-5-(trifluoromethyl)pyridin-3-yl]methyl}amino)pyrrolidine-2-carboxylic acid]",EC50,[1],1000 to 10000 nM
same,EC50,[2],1000 to 10000 nM
same,Maximum % activity (with co-corrector),,+++ (≥350)
same,Emax,,< 100%
"COc1ccc(C(C)(C)C)cc1CN[C@H]1[C@H](C(C)(C)C)[C@@H](C(=O)O)N(S(=O)(=O)c2ccccc2)[C@H]1c1ccccc1 [Example 15, (2S,3S,4S,5S)-1-(benzenesulfonyl)-3-tert-butyl-4-{[(5-tert-butyl-2-methoxyphenyl)methyl]amino}-5-phenylpyrrolidine-2-carboxylic acid]",EC50,[1],1000 to 10000 nM
same,EC50,[2],1000 to 10000 nM
same,Maximum % activity (with co-corrector),,+++ (≥350)
same,Emax,,100 to 200%
"COc1ncc(C2CCC2)cc1CN[C@H]1[C@H](C(C)(C)C)[C@@H](C(=O)O)N(C(=O)C2CCCCC2)[C@H]1c1ccccc1 [Example 16, (2S,3S,4S,5S)-3-tert-butyl-4-{[(5-cyclobutyl-2-methoxypyridin-3-yl)methyl]amino}-1-(cyclohexanecarbonyl)-5-phenylpyrrolidine-2-carboxylic acid]",EC50,[1],< 1000 nM
same,EC50,[2],< 1000 nM
same,Maximum % activity (with co-corrector),,+++ (≥350)
same,Emax,,> 200%
"COc1ccc(C(C)(C)C)cc1CN[C@H]1[C@H](C(C)(C)C)[C@@H](C(=O)O)N(C(=O)C2CCCCC2)[C@H]1c1cccnc1OC [Example 17, (2S,3S,4S,5S)-3-tert-butyl-4-{[(5-tert-butyl-2-methoxyphenyl)methyl]amino}-1-(cyclohexanecarbonyl)-5-(2-methoxypyridin-3-yl)pyrrolidine-2-carboxylic acid]",EC50,[1],1000 to 10000 nM
same,EC50,[2],< 1000 nM
same,Maximum % activity (with co-corrector),,+++ (≥350)
same,Emax,,> 200%
"COc1ccc(C(C)(C)C)cc1CN[C@H]1[C@H](C(C)(C)C)[C@@H](C(=O)O)N(C(=O)[C@@H]2CCCCO2)[C@H]1c1cccnc1N(C)C [Example 18, (2S,3S,4S,5S)-3-tert-butyl-4-{[(5-tert-butyl-2-methoxyphenyl)methyl]amino}-5-[2-(dimethylamino)pyridin-3-yl]-1-[(2S)-oxane-2-carbonyl]pyrrolidine-2-carboxylic acid]",EC50,[1],1000 to 10000 nM
same,EC50,[2],1000 to 10000 nM
same,Maximum % activity (with co-corrector),,+++ (≥350)
same,Emax,,> 200%
"COc1ccc(C(C)(C)C)cc1CN[C@H]1[C@H](C(C)(C)C)[C@@H](C(=O)O)N(C(=O)[C@H]2CCCCO2)[C@H]1c1cccnc1N(C)C [Example 19, (2S,3S,4S,5S)-3-tert-butyl-4-{[(5-tert-butyl-2-methoxyphenyl)methyl]amino}-5-[2-(dimethylamino)pyridin-3-yl]-1-[(2R)-oxane-2-carbonyl]pyrrolidine-2-carboxylic acid]",EC50,[1],1000 to 10000 nM
same,EC50,[2],1000 to 10000 nM
same,Maximum % activity (with co-corrector),,+++ (≥350)
same,Emax,,> 200%
"COc1ccc(C(C)(C)C)cc1CN[C@H]1[C@H](C(C)(C)C)[C@@H](C(=O)O)N(C(=O)CC2CCCCO2)[C@H]1c1ccccc1 (stereo partly drawn) [Example 20, (2S,3S,4S,5S)-3-tert-butyl-4-{[(5-tert-butyl-2-methoxyphenyl)methyl]amino}-1-[(oxan-2-yl)acetyl]-5-phenylpyrrolidine-2-carboxylic acid]",EC50,[1],1000 to 10000 nM
same,EC50,[2],1000 to 10000 nM
same,Maximum % activity (with co-corrector),,+++ (≥350)
same,Emax,,100 to 200%
"COc1ncc(C(F)(F)F)cc1CN[C@H]1[C@H](C(C)(C)C)[C@@H](C(=O)O)N(C(=O)[C@@H]2CCCCO2)[C@H]1c1ccccc1 [Example 21, (2S,3S,4S,5S)-3-tert-butyl-4-({[2-methoxy-5-(trifluoromethyl)pyridin-3-yl]methyl}amino)-1-[(2S)-oxane-2-carbonyl]-5-phenylpyrrolidine-2-carboxylic acid]",EC50,[1],1000 to 10000 nM
same,EC50,[2],1000 to 10000 nM
same,Maximum % activity (with co-corrector),,+++ (≥350)
same,Emax,,100 to 200%
"COc1ncc(C(F)(F)F)cc1CN[C@H]1[C@H](C(C)(C)OC)[C@@H](C(=O)O)N(C(=O)C2CCCCC2)[C@H]1c1ccccc1 [Example 22, (2S,3S,4S,5S)-1-(cyclohexanecarbonyl)-3-(2-methoxypropan-2-yl)-4-({[2-methoxy-5-(trifluoromethyl)pyridin-3-yl]methyl}amino)-5-phenylpyrrolidine-2-carboxylic acid]",EC50,[1],< 1000 nM
same,EC50,[2],< 1000 nM
same,Maximum % activity (with co-corrector),,+++ (≥350)
same,Emax,,100 to 200%
"COc1ccc(C(C)(C)C)cc1CN[C@H]1[C@H](C(C)(C)C)[C@@H](C(=O)O)N(C(=O)C2CCCCC2)[C@H]1c1ccccc1F [Example 24, (2S,3S,4S,5S)-3-tert-butyl-4-{[(5-tert-butyl-2-methoxyphenyl)methyl]amino}-1-(cyclohexanecarbonyl)-5-(2-fluorophenyl)pyrrolidine-2-carboxylic acid]",EC50,[1],< 1000 nM
same,EC50,[2],< 1000 nM
same,Maximum % activity (with co-corrector),,+++ (≥350)
same,Emax,,> 200%
"COc1ncc(-c2ccccc2)cc1CN[C@H]1[C@H](C(C)(C)C)[C@@H](C(=O)O)N(C(=O)C2CCCCC2)[C@H]1c1ccccc1 [Example 25, (2S,3S,4S,5S)-3-tert-butyl-1-(cyclohexanecarbonyl)-4-{[(2-methoxy-5-phenylpyridin-3-yl)methyl]amino}-5-phenylpyrrolidine-2-carboxylic acid]",EC50,[1],< 1000 nM
same,EC50,[2],< 1000 nM
same,Maximum % activity (with co-corrector),,+++ (≥350)
same,Emax,,100 to 200%
"COc1ncc(C(F)(F)F)cc1CN[C@H]1[C@H](C(C)(C)C)[C@@H](C(=O)O)N(C(=O)C2CCCCC2)[C@H]1c1ccc(F)cc1 [Example 26, (2S,3S,4S,5S)-3-tert-butyl-1-(cyclohexanecarbonyl)-5-(4-fluorophenyl)-4-({[2-methoxy-5-(trifluoromethyl)pyridin-3-yl]methyl}amino)pyrrolidine-2-carboxylic acid]",EC50,[1],< 1000 nM
same,EC50,[2],< 1000 nM
same,Maximum % activity (with co-corrector),,+++ (≥350)
same,Emax,,100 to 200%
"COc1ncc(C(C)(C)C)cc1CN[C@H]1[C@H](C(C)(C)C)[C@@H](C(=O)O)N(C(=O)C2CCCCC2)[C@H]1c1ccccc1 [Example 27, (2S,3S,4S,5S)-3-tert-butyl-4-{[(5-tert-butyl-2-methoxypyridin-3-yl)methyl]amino}-1-(cyclohexanecarbonyl)-5-phenylpyrrolidine-2-carboxylic acid]",EC50,[1],1000 to 10000 nM
same,EC50,[2],1000 to 10000 nM
same,Maximum % activity (with co-corrector),,+++ (≥350)
same,Emax,,> 200%
"COc1nc(C(C)(C)C)ccc1CN[C@H]1[C@H](C(C)(C)C)[C@@H](C(=O)O)N(C(=O)C2CCCCC2)[C@H]1c1ccccc1 [Example 29, (2S,3S,4S,5S)-3-tert-butyl-4-{[(6-tert-butyl-2-methoxypyridin-3-yl)methyl]amino}-1-(cyclohexanecarbonyl)-5-phenylpyrrolidine-2-carboxylic acid]",EC50,[1],< 1000 nM
same,EC50,[2],< 1000 nM
same,Maximum % activity (with co-corrector),,+++ (≥350)
same,Emax,,100 to 200%
"COc1ccc(C(C)(C)C)cc1CN[C@H]1[C@H](C(C)(C)C)[C@@H](C(=O)O)N(C(=O)[C@H]2CCCC(F)(F)C2)[C@H]1c1ccccc1 [Example 30, (2S,3S,4S,5S)-3-tert-butyl-4-{[(5-tert-butyl-2-methoxyphenyl)methyl]amino}-1-[(1S)-3,3-difluorocyclohexane-1-carbonyl]-5-phenylpyrrolidine-2-carboxylic acid]",EC50,[1],1000 to 10000 nM
same,EC50,[2],1000 to 10000 nM
same,Maximum % activity (with co-corrector),,+++ (≥350)
same,Emax,,> 200%
"COc1ccc(C(C)(C)C)cc1CN[C@H]1[C@H](C(C)(C)C)[C@@H](C(=O)O)N(C(=O)[C@@H]2CCCC(F)(F)C2)[C@H]1c1ccccc1 [Example 31, (2S,3S,4S,5S)-3-tert-butyl-4-{[(5-tert-butyl-2-methoxyphenyl)methyl]amino}-1-[(1R)-3,3-difluorocyclohexane-1-carbonyl]-5-phenylpyrrolidine-2-carboxylic acid]",EC50,[1],< 1000 nM
same,EC50,[2],< 1000 nM
same,Maximum % activity (with co-corrector),,+++ (≥350)
same,Emax,,> 200%
"COc1ccc(C(C)(C)C)cc1CN[C@H]1[C@H](C(C)(C)C)[C@@H](C(=O)O)N(C(=O)[C@@H](Cc2ccccc2)OC)[C@H]1c1ccccc1 [Example 32, (2S,3S,4S,5S)-3-tert-butyl-4-{[(5-tert-butyl-2-methoxyphenyl)methyl]amino}-1-[(2R)-2-methoxy-3-phenylpropanoyl]-5-phenylpyrrolidine-2-carboxylic acid]",EC50,[1],1000 to 10000 nM
same,EC50,[2],< 1000 nM
same,Maximum % activity (with co-corrector),,+++ (≥350)
same,Emax,,> 200%
"COc1ccc(C2(C(F)(F)F)CC2)cc1CN[C@H]1[C@H](C(C)(C)C)[C@@H](C(=O)O)N(C(=O)C2CCCCC2)[C@H]1c1ccccc1 [Example 33, (2S,3S,4S,5S)-3-tert-butyl-1-(cyclohexanecarbonyl)-4-[({2-methoxy-5-[1-(trifluoromethyl)cyclopropyl]phenyl}methyl)amino]-5-phenylpyrrolidine-2-carboxylic acid]",EC50,[1],1000 to 10000 nM
same,EC50,[2],< 1000 nM
same,Maximum % activity (with co-corrector),,+++ (≥350)
same,Emax,,> 200%
"COc1ccc(C(C)(C)C)cc1CN[C@H]1[C@H](C(C)(C)C)[C@@H](C(=O)O)N(C(=O)[C@@H]2CCCO2)[C@H]1c1ccccc1 [Example 34, (2S,3S,4S,5S)-3-tert-butyl-4-{[(5-tert-butyl-2-methoxyphenyl)methyl]amino}-1-[(2S)-oxolane-2-carbonyl]-5-phenylpyrrolidine-2-carboxylic acid]",EC50,[1],1000 to 10000 nM
same,EC50,[2],1000 to 10000 nM
same,Maximum % activity (with co-corrector),,+++ (≥350)
same,Emax,,> 200%

# Source: US20180099931A1 (AbbVie S.à.r.l., priority 2016, published 2018)
